“And” between values parts separate entries of the source, which are not always exact repeats. Identical values can stand only once.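 Assay format: 96-well plates, 48-hour exposure. GI50 is the concentration that inhibits growth by half. TGI: concentration producing complete growth inhibition.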
How the values were obtained:
Assay in all cases: NCI-60 cell line screen, 48 h
SNB-75 CNS = tested on: SNB-75 CNS
786-0 renal = tested on: 786-0 renal
DMS 273 small cell lung = tested on: DMS 273 small cell lung
DLD-1 colon = tested on: DLD-1 colon
SR leukemia = tested on: SR leukemia
DMS 114 small cell lung = tested on: DMS 114 small cell lung
HT29 colon = tested on: HT29 colon
M19-MEL melanoma = tested on: M19-MEL melanoma
A549 NSCLC = tested on: A549 NSCLC
CAKI-1 renal = tested on: CAKI-1 renal
HOP-62 NSCLC = tested on: HOP-62 NSCLC
SK-OV-3 ovarian = tested on: SK-OV-3 ovarian

SMILES	TGI (SNB-75 CNS)	TGI (786-0 renal)	TGI (DMS 273 small cell lung)	TGI (DLD-1 colon)	TGI (SR leukemia)	TGI (DMS 114 small cell lung)	TGI (HT29 colon)	TGI (M19-MEL melanoma)	TGI (A549 NSCLC)	TGI (CAKI-1 renal)	TGI (HOP-62 NSCLC)	TGI (SK-OV-3 ovarian)	GI50 (DMS 273 small cell lung)	GI50 (DLD-1 colon)	GI50 (SNB-75 CNS)	GI50 (HT29 colon)	GI50 (A549 NSCLC)	GI50 (CAKI-1 renal)	GI50 (HOP-62 NSCLC)	GI50 (SK-OV-3 ovarian)
CCC12C=CCN3CCC4(C(=C(C(=O)OC)[C@@H]1O)Nc1ccccc14)C32 (some centres undefined)	5.8 µM	3.07 µM	3.37 µM	3.36 µM	4.58 µM	3.24 µM	3.76 µM	3.61 µM	5.15 µM	7.18 µM	4.12 µM	6.2 µM								
O=C1CCC23CC(C=CC=C12)n1c(=O)n(-c2ccccc2)c(=O)n13 (centres undefined)	> 100 µM		> 100 µM	> 100 µM		> 100 µM	> 100 µM	> 100 µM	> 100 µM	> 83.4 µM	> 100 µM	> 100 µM								
O=C(Nc1ccc(C2=NCCN2)cc1)c1cncc(C(=O)Nc2ccc(C3=NCCN3)cc2)c1	> 31.6 µM		> 100 µM	> 100 µM		> 100 µM	> 100 µM	> 100 µM	> 100 µM	> 100 µM	> 100 µM	> 100 µM								
Cc1cccc2c(=O)cc(-c3ccccc3)[nH]c12	9.26 µM	> 100 µM	> 100 µM	> 100 µM	> 100 µM	> 100 µM	> 100 µM	> 100 µM	> 100 µM		42.6 µM									
CNC(=O)C(C)C1CCC2(C)C=CC(=O)C(C)=C2C1O (centres undefined)	> 100 µM		> 58.1 µM	> 100 µM		> 100 µM	> 100 µM	> 100 µM	> 90.2 µM	91.7 µM	> 100 µM	> 100 µM								
[N-]=[N+]=Nc1cc(=O)oc2ccccc12	> 100 µM	> 100 µM	> 100 µM	> 100 µM	> 100 µM	> 100 µM	> 100 µM	> 100 µM	> 100 µM	> 100 µM	> 100 µM	> 100 µM								
COc1nc(N)c(C(=O)CCl)c(=O)n1C	30.3 µM			27.6 µM	42.4 µM	33.9 µM	32.3 µM		51.6 µM	23.4 µM										
CC(N)Cc1ccc(C(=O)Cl)cc1 (centres undefined)	> 100 µM	> 100 µM		> 100 µM		> 100 µM	> 100 µM	> 100 µM	> 100 µM	> 100 µM	> 100 µM	> 100 µM								
N#CN=C(N(Cc1ccccc1)Cc1ccccc1)N(Cc1ccccc1)Cc1ccccc1	> 100 µM			> 100 µM		> 100 µM	> 100 µM	> 100 µM	> 100 µM	> 100 µM	> 100 µM	> 100 µM								
N.N.N.N.O=[N+]([O-])[O-].[Co+3].[N-]=[N+]=[N-].[N-]=[N+]=[N-]	> 100 µM	> 100 µM	> 100 µM	> 100 µM			> 100 µM		> 100 µM		> 100 µM	> 100 µM	> 100 µM	> 100 µM						
Cc1c2cnccc2c(C)c2c1c1ccccc1n2CCCN	1.48 µM and 0.368 µM	0.564 µM	0.619 µM	0.847 µM	0.349 µM	1.02 µM	1.01 µM and 0.292 µM	0.915 µM	1.29 µM and 0.447 µM	1.9 µM and 1.41 µM	1.52 µM and 0.597 µM	1.71 µM and 1.25 µM			0.169 µM	0.0277 µM	0.0471 µM	0.779 µM and 0.295 µM	0.0687 µM	0.278 µM
Cc1cc(=O)[nH]c(NN2C(Cl)C(=O)C2c2ccccc2O)n1 (centres undefined)	> 76.2 µM	> 100 µM	15.3 µM		> 100 µM	6.44 µM	> 100 µM	> 100 µM	> 100 µM	> 100 µM	> 100 µM	> 100 µM								
C=C1c2nc3ccccc3n2C=C(c2ccccc2)N1c1ccc([N+](=O)[O-])cc1	16.4 µM	4.13 µM			> 70 µM		> 61.1 µM		13.5 µM	24 µM	> 52.6 µM	15.3 µM								
CCN(CC)CCC(=O)Nc1ccc2c(c1)C(=O)c1ccc(NC(=O)CCN(CC)CC)cc1C2=O	31.9 µM	8.42 µM	3.82 µM	10.2 µM	14.5 µM	13 µM	12.5 µM	> 100 µM	20.6 µM	14.7 µM	17.6 µM	21.7 µM								
COc1ccc(/C=C2\CCC(C)C3=C2NC(=S)NC3c2ccc(OC)c(OC)c2)cc1OC (centres undefined)	> 100 µM	> 31.6 µM			39.3 µM		> 100 µM		> 100 µM	> 31.6 µM	> 100 µM	> 31.6 µM								
O=C1OCC(O)=C1C(c1ccc(Cl)cc1)c1cc2c(cc1O)OCO2 (centres undefined)	> 100 µM	> 100 µM			> 100 µM		> 100 µM		> 100 µM	> 100 µM	> 100 µM	> 100 µM								
O=C1CCC(=O)N1n1c(Cc2ccccc2)n[nH]c1=O	> 100 µM	> 100 µM			> 100 µM		> 100 µM		> 100 µM	> 100 µM	> 100 µM	> 100 µM								
CC1C=C(CCCCCCCCCCCC[C@@H](O)[C@@H]2CC[C@@H]([C@@H]3CC[C@@H](C(O)CCCCCCCCCCCCC4=C[C@H](C)OC4=O)O3)O2)C(=O)O1 (some centres undefined)	> 100 µM	> 100 µM	> 100 µM	> 100 µM	> 55 µM	> 100 µM	> 100 µM	> 100 µM	> 100 µM	> 100 µM	> 100 µM	> 100 µM								
Cc1ccccc1-n1c(=O)c2ncn(CCCl)c2n(-c2ccccc2C)c1=S	> 100 µM	> 100 µM			> 100 µM		> 100 µM		> 100 µM	> 100 µM	> 100 µM	> 100 µM								
COC(=O)C1CCC(=O)N1C(c1ccccc1)c1ccc(OC)c(OC)c1 (centres undefined)	> 100 µM	> 100 µM			> 100 µM		> 100 µM		> 100 µM	> 100 µM	> 100 µM	> 100 µM								
CC(C)CCCCCCCCCCCCC(=O)NCC(=O)NC1C(C)OC(Nc2ncnc3c2ncn3C)C(O)C1O (centres undefined)	27.9 µM		21.6 µM	> 100 µM		> 100 µM	> 100 µM	> 100 µM	> 100 µM	5.6 µM	> 34.2 µM	> 94.6 µM								
CC(=O)Nc1ccc(-c2nnc(SCC(=O)Nc3ccc([N+](=O)[O-])cc3)o2)cc1	27.6 µM	23.7 µM	22.6 µM	26.4 µM	> 100 µM	14.6 µM	27.3 µM	26.3 µM	37 µM	27.5 µM	53.4 µM	35.9 µM								
C[n+]1c2ccccc2c(/C=N\NS(=O)(=O)c2ccc(O)c(C(=O)O)c2)c2ccccc21	> 100 µM	> 100 µM	> 100 µM	> 100 µM		> 100 µM	> 100 µM	> 100 µM	> 100 µM	> 100 µM	> 100 µM	> 100 µM								
CCOC(=O)c1c2ccccc2n2c(N)c(C(N)=O)nnc12	30.8 µM	> 100 µM			> 100 µM		> 100 µM		> 100 µM	> 100 µM	69.1 µM	37.6 µM								
CC(C)c1ccc(/C=C2/C=C(c3ccc4ccccc4c3)OC2=O)cc1	> 100 µM	> 100 µM			> 52.4 µM		> 100 µM		> 100 µM	> 100 µM	> 100 µM	> 100 µM								
COc1ccc(C2c3cc4c(cc3OC(NNS(=O)(=O)c3ccc(C)cc3)C2C)OCO4)cc1 (centres undefined)	> 100 µM	> 100 µM			69.7 µM		> 100 µM		> 100 µM	> 100 µM	> 100 µM	> 100 µM								
Cc1cc(O)c2c(=O)c3ccccc3[nH]c2c1	93.6 µM	> 100 µM			52.6 µM		38 µM		> 100 µM	90.6 µM	71.2 µM	> 100 µM								
CC(C)CC(=O)OC[n+]1ccc(-c2c(COC(=O)NC(C)C)c(COC(=O)NC(C)C)c3n2CCC3)cc1	> 100 µM	> 100 µM			> 100 µM		> 100 µM		> 100 µM	> 100 µM	> 100 µM	> 100 µM								

— PubChem BioAssay (NCI)
